# Data reported in article PMC4831050 (Journal of natural products, 2016).
# Experiments:
# [1] = In vitro cytotoxicity, sulforhodamine B; assay type: cell-based; conditions: human
# [2] = test system: L. donovani promastigotes; assay: In vitro killing of L. donovani promastigotes; assay type: cell-based, Leishmania donovani (strain LV 82); conditions: Leishmania donovani, 72 h, read-out: L. donovani promastigotes IC50
# Stability in solution = assay type: physicochemical; conditions: room temperature
# [3] = cited from earlier work
# [4] = test system: human farnesyl diphosphate synthase (FPPS); conditions: cited from earlier work
# [5] = test system: L. donovani promastigotes; conditions: isolated from other plant species; cited from earlier work
# [6] = test system: trypanosomal farnesyl diphosphate synthase (FPPS); conditions: cited from earlier work
# [7] = HT-29 colorectal carcinoma cells
Compound,"IC50 at 72 h [1, 7] [µg/mL]",IC50 [2] [µg/mL],also measured
"COCC(=O)[C@H]1C(C)(C)CCC[C@]1(C)C1=C(O)C(=O)C(C(C)C)=CC1=O [Compound 2, (1′S,2′S)-6-hydroxy-4-isopropyl-2′-(2-methoxyacetyl)-1′,3′,3′-trimethyl-[1,1′-bi(cyclohexane)]-3,6-diene-2,5-dione]",1.6,2.5,–
"Cc1ccc2c3c1CCCC(C)(C)C3C(=O)C(C(C)C)=C2 (racemic) [Compound 4, (±)-11-dehydroxymicrostegiol]",–,–,stability in solution (Stability in solution): stable in solution at room temperature
"CC(C)c1cc2c(cc1O)[C@@]1(C)CCCC(C)(C)[C@@H]1CC2 [Compound 12, ferruginol]",11.3,13.1,reported antioxidant and gastroprotective activity [3]: bioavailable antioxidant and gastroprotective agent
"CC(C)c1cc2c(cc1O)[C@@]1(C)CCCC(C)(C)[C@@H]1[C@@H](O)C2=O [Compound 14, 6α-hydroxysugiol]",11.4,7.8,–
"CC(C)C1=CC2=CC(=O)[C@H]3C(C)(C)CCC[C@]3(C)C2=C(O)C1=O [Compound 10, taxodione]",0.8,0.5,inhibition of human farnesyl diphosphate synthase (FPPS) [4]: inhibitor; antileishmanial activity against L. donovani promastigotes in vitro [5]: potent antileishmanial agent; inhibition of trypanosomal farnesyl diphosphate synthase (FPPS) [6]: inhibitor
"CC(C)c1cc2c(c(O)c1O)[C@@]1(C)CCCC(C)(C)C1=C(O)C2=O [Compound 16, 14-deoxycoleon U]",–,> 20,IC50 at 72 h [1]: 4.4 µg/mL
